Data reported in patent publication US10716769B2 (GUANGZHOU JTREAT BIOSCI. LTD., priority 2015, dated 2020).
Converted amounts (≈) assume the structure as drawn.

Assays:
[1] = target: T1, HIV-1 integrase (Human immunodeficiency virus type 1 group M subtype B, UniProt P04585); test: Test of sample inhibition to HIV-1 integrase (ELISA, strand transfer); assay type: biochemical
T1 construct: purified HIV-1 integrase is added to donor substrates coated 96-well plate; made in house
Method: The half-inhibitory concentration IC50 for 3′ excision of the substrate and the strand transfer is in the range of 88.92-10.20 μg/ml, in which the best inhibitory activity of the compound is higher than that of the monomer compound of hydroxybenzoic acid. The mechanism of the HIV-1 integrase is a two-step reaction: 1) 3′ Processing: the integrase binds to the specific sequences of the long terminal repeat region (LTR) of the proviral DNA to form a stable complex, then the endonucleotides of 3′ end of nucleoside is processed, and the GT dinucleotide of the sequence . . . […] Thus, the activity of the integrase inhibitor is embodied in inhibiting the excision of the 3′end of the viral DNA or the strand transfer, and is represented by a half-inhibitory concentration IC50.
In vitro integrase test, 30 synthetic oligonucleotides are used as donor substrates, 20 synthetic oligonucleotides are used as target substrates. Purified HIV-1 integrase is added to donor substrates coated 96-well plate, ELISA reaction is performed, the product of the strand transfer of target DNA is detected, color development is conducted by biotin-labeled alkaline phosphatase system, and the microplate reader is used to measure the OD value.
First, inhibitors of the enzyme may be screened by adding a sample to the reaction system. Before use, the sample is prepared with DMSO to an appropriate concentration, and then is diluted 5 times at 4 dilutions. The sample after dilution is added into the donor substrate coated 96-well plate, and then added to the reaction Buffer containing the genetically engineered target enzyme and the biotin-target substrate, incubated under optimal reaction conditions, and colored by biotin-labeled alkaline phosphatase system, and the OD value for absorbance value at 405 nm is measured.
30 synthetic oligonucleotides are used as donor substrates, 20 synthetic oligonucleotides are used as target substrates, purified HIV-1 integrase is added to donor substrates coated 96-well plate, ELISA reaction is performed, the product of the strand transfer of target DNA is detected, color development is conducted by biotin-labeled alkaline phosphatase system, and the OD value is measured by a microplate reader. The addition of samples to the reaction system can be used to screen inhibitors for the enzyme.
1. HIV-1 IN: it is extracted and saved by Chinese National New Drug Screening Center and Institute of Pharmaceutical Biotechnology under Chinese Academy of Medical Sciences.
2. Sample Treatment: 10 samples A1-A10 dissolved into DMSO prior to use are prepared into suitable concentrations, and then diluted 5 times at 4 dilutions. Donor substrate and target substrate are from Shanghai Biochemical Synthesis.
3. Method for Test: the samples after dilution are added into the donor substrate coated 96-well plate, then added to the reaction Buffer containing the genetically engineered target enzyme and the biotin-target substrate, incubated under optimal reaction conditions, and colored by biotin-labeled alkaline phosphatase system, and the OD value for absorbance value at 405 nm is measured.

[2] = tested on: human umbilical vein endothelial cell line (ECV304); test: MTT in vitro cell inhibition; assay type: cell-based; conditions: 3 days
Excerpt: An effective amount of the above compounds and/or the compositions containing the same used as an active ingredient have an effect on inhibiting the tumor cells. The present invention detects the inhibitory effect of the hydroxy-substituted benzophenone compounds on the proliferation of the in vitro cultured human tumor cells by the methylthiazolyl tetrazolium method.
The method is used to detect cell viability. […] Particles can be dissolved by dimethyl sulfoxide (DMSO) isopropyl alcohol or 10% acidified SDS (sodium dodecyl sulfate), and a microplate reader is used to measure the OD value at A570 wavelength, which indirectly reflects the number of live cells. The method is used for detection of the cytokines bioactivity, as well as anti-tumor drugs and tumor radiosensitivity and cytotoxicity test, and has the characteristics of being simple, fast, economical, sensitive and accurate and having good reproducibility and no need to use radionuclides. This method has been widely used in screening preclinical anticancer drugs and detecting the drug sensitivity of fresh tumor cells. The method is as below:
(1) The tumor cell suspension prepared by 0.25% of trypsin digestion and adjusted to a cell concentration of 10^5/ml with RPMI1640 containing 10% fetal calf serum is added to a 96-well plate with 100 μl for each well, cultured 24 hours, and then different dosages of drugs are added with 100 μl/well, for which, the negative control groups, positive control groups and withering wells are set, and 4 parallel wells are set for each group.
(2) They are continually cultured in incubator containing 5% of CO2 at 37° C. for 24 to 48 hours. MTT solution (5 g/L) is added to each well before the termination of the experiment. The OD value at A570 nm is detected by microplate reader. The OD value at A570 of the negative group without the addition of drugs is taken as a control. The cell survival rate and cell inhibition rate of drugs are calculated according to the following formula: Cell survival rate=(OD value of test group/OD value of control group)×100% Cell inhibition rate (%)=(OD value of the control group−OD value of the test group/(OD value of the control group−OD value of the blank group)
1. Tumor cell lines: human glioma cell line (U251), human colon cancer cell line (LOVO), human hepatoma cell line (HepG2), human lung cancer cell line (PC84045), human endometrial carcinoma cell line (JEC), human renal carcinoma (GRC), human gastric cancer cell line (MCG804), human cervical cancer cell line (HeLa), human hepatocellular carcinoma cell line (BEL-7402) and human umbilical vein endothelial cell line (ECV304) purchased from Animal Experimental Center of Zhongshan Medical College, and preserved by the present laboratory.
The tumor cell lines are cultured in RPMI-1640 medium containing 15% of the newborn bovine serum in a conventional manner, placed in the humidification incubator containing 5% of CO2 for being cultured at 37° C., and are observed for growth by an inverted microscope. A subculture is conducted every about 3-5 days, the cells in logarithmic growth phase are adopted to be digested with 0.25% of trypsin, and the serum-free RPMI-1640 medium is used for culturing the cell suspension; the blood counting plate makes counting, the trypan blue exclusion tests the cell activity, and the cell viability>95% is used for formal tests.
Liquid preparation: the compounds are labeled with the codes respectively, DMSO is used to dissolve each compound, the bacterial filter is used to remove bacteria, and each compound is prepared into 10^−4 g/ml, 10^−5 g/ml, 10^−6 g/ml and preserved at 4° C. for use. […]

[3] = tested on: HSV-II, SAV strain; test: Inhibition of cytopathic effects of Vero cells caused by herpes virus type II; assay type: cell-based; conditions: Human alphaherpesvirus 2; Vero cells, CPE 48 hours, Reed-Muench; read-out: IC50 Against HSV-II
Excerpt: Vero cells (kidney cells of African green monkey) are used as viral hosts to test the inhibition degree of the samples to the cytopathic effects of Vero cells caused by herpes virus type I and type II.
Vero cells (kidney cells of African green monkey) are used as viral hosts to test the inhibition degree of the samples to cytopathic effects of the Vero cell caused by herpes virus type I and type II.
1. Virus strains: HSV-I, VR733 strain, and HSV-II, SAV strain, which both are provided by ATCC.
2. Sample treatment: the sample is dissolved in DMSO at an appropriate concentration before use, and diluted with the culture medium 3 times at a total of 8 dilutions for test.
3. Positive control drug: acyclovir (ACV) produced by the Hubei Ke Yi pharmaceutical factory.

Question: For `O=C(c1cc(O)c(O)cc1O)c1ccc(O)c(O)c1O`, which IC50 [1] is on record?
Answer: 37.8 µM

Question: What about the Inhibitory rate % ([2]; ECV304, 10^−4 g/ml) of the same compound?
Answer: 72.41%

Question: What about the Inhibitory rate % ([2]; ECV304, 10^−5 g/ml) of the same compound?
Answer: 53.62%

Question: What about the Inhibitory rate % ([2]; ECV304, 10^−6 g/ml) of the same compound?
Answer: 30.75%

Question: For `O=C(c1ccc(O)c(O)c1O)c1ccc(O)c(O)c1O` [2,3,4,2′,3′,4′-hexahydroxybenzophenone], which IC50 [1] is on record?
Answer: 32.8 µM

Question: And the IC50 [3]?
Answer: 10.8 µg/mL (≈ 39 µM)

Question: And the Inhibitory rate % ([2]; ECV304, 10^−4 g/ml)?
Answer: 79.37%

Question: And the “Inhibitory rate, sensitivity class” value ([2]; ECV304, 10^−5 g/ml)?
Answer: insensitive (<30% means insensitive)

Question: And the “Inhibitory rate, sensitivity class” value ([2]; ECV304, 10^−6 g/ml)?
Answer: insensitive (<30% means insensitive)

Question: For `O=C(c1ccccc1)c1ccc(O)c(O)c1O` [2,3,4-trihydroxybenzophenone], which IC50 [1] is on record?
Answer: 52.6 µM

Question: And the IC50 [3]?
Answer: 28.7 µg/mL (≈ 125 µM)

Question: What about the Inhibitory rate % ([2]; ECV304, 10^−4 g/ml) of the same compound?
Answer: 89.63%

Question: And the Inhibitory rate % ([2]; ECV304, 10^−5 g/ml)?
Answer: 45.81%

Question: And the “Inhibitory rate, sensitivity class” value ([2]; ECV304, 10^−6 g/ml)?
Answer: insensitive (<30% means insensitive)

Question: Which IC50 [1] does the source give for `O=C(c1ccc(O)cc1O)c1ccc(O)cc1O` [2,4,2′,4′-tetrahydroxybenzophenone] here?
Answer: 45.6 µM

Question: What about the IC50 [3] of the same compound?
Answer: 28.7 µg/mL (≈ 117 µM)

Question: What about the Inhibitory rate % ([2]; ECV304, 10^−4 g/ml) of the same compound?
Answer: 42.13%

Question: What about the “Inhibitory rate, sensitivity class” value ([2]; ECV304, 10^−5 g/ml) of the same compound?
Answer: insensitive (<30% means insensitive)

Question: What about the “Inhibitory rate, sensitivity class” value ([2]; ECV304, 10^−6 g/ml) of the same compound?
Answer: insensitive (<30% means insensitive)
